Where “and” joins values, the source holds several entries; their conditions need not be identical. Equal values may be shown once. ± gives the expanded uncertainty stated by the source.
Columns and labels:
[1] = molar heat capacity at constant pressure; conditions: 101.33 kPa, Liquid, Large sample (1 g) DSC
[2] = DTA
[3] = Molar enthalpy of transition or fusion; conditions: DSC

CCCCCC[n+]1ccn(C)c1.O=S(=O)([N-]S(=O)(=O)C(F)(F)F)C(F)(F)F
Conditions	Molar enthalpy of transition or fusion [kcal/mol]	Normal melting temperature [°C]	molar heat capacity at constant pressure
[1], 302.86 K	–	–	655.92 ± 22 J/K/mol
[1], 312.83 K	–	–	632.65 ± 21 J/K/mol and 660.84 ± 22 J/K/mol
[1], 322.79 K	–	–	666.66 ± 22 J/K/mol
[1], 322.81 K	–	–	640.7 ± 21 J/K/mol
[1], 332.76 K	–	–	668 ± 22 J/K/mol
[1], 332.78 K	–	–	648.76 ± 21 J/K/mol
[1], 342.73 K	–	–	671.58 ± 22 J/K/mol
[1], 342.76 K	–	–	657.26 ± 22 J/K/mol
[1], 352.7 K	–	–	676.95 ± 22 J/K/mol
[1], 352.72 K	–	–	666.66 ± 22 J/K/mol
[1], 362.67 K	–	–	683.66 ± 23 J/K/mol
[1], 362.68 K	–	–	679.18 ± 22 J/K/mol
[1], 372.64 K	–	–	690.82 ± 23 J/K/mol
[2], Crystal	–	-1.70 ± 0.61	–
[3], Crystal	6.62 ± 0.43	–	–

CCCCCCCCn1cc[n+](C)c1.O=S(=O)([N-]S(=O)(=O)C(F)(F)F)C(F)(F)F
Conditions	Molar enthalpy of transition or fusion [kcal/mol]	Normal melting temperature [°C]	molar heat capacity at constant pressure [J/K/mol]
[1], 281.99 K	–	–	693.71 ± 23
[1], 291.95 K	–	–	695.62 ± 23
[1], 302.86 K	–	–	690.39 ± 23
[1], 302.88 K	–	–	692.29 ± 23
[1], 312.83 K	–	–	705.13 ± 23
[1], 312.86 K	–	–	705.6 ± 23
[1], 322.79 K	–	–	714.16 ± 24
[1], 322.84 K	–	–	719.87 ± 24
[1], 332.76 K	–	–	719.87 ± 24
[1], 332.81 K	–	–	732.7 ± 24
[1], 342.72 K	–	–	725.57 ± 24
[1], 342.78 K	–	–	748.39 ± 25
[1], 352.68 K	–	–	730.33 ± 24
[1], 352.74 K	–	–	757.9 ± 25
[1], 362.65 K	–	–	736.98 ± 24
[1], 362.71 K	–	–	767.89 ± 26
[1], 372.62 K	–	–	742.21 ± 25
[1], 372.66 K	–	–	779.78 ± 26
[2], Metastable crystal	–	-23.34 ± 0.61	–
[3], Metastable crystal	6.56 ± 0.43	–	–
